This is an account of results in patent US20030008273A1, “Methods for increasing the survival of neuronal cells” (priority 2001, published 2003).

The subject of assay [1] is RXR (Nurr1-RXR heterodimer). Conditions: JEG3, MH100-tk-luc reporter.
Method: (§4) Human choriocarcinoma cells, JEG3, were transfected in triplicate in 24-well plates. […] Each well was transfected with 100 ng of the gal4-binding luciferase reporter construct, MH100-tk-luc, 100 ng of CMX-RXR (Perlmann et al. (1995) Genes and Dev. 9: 769-782), and 100 ng of either CMX-gal4-Nurr1 (Perlmann et al. (1995) Genes and Dev. 9: 769-782), or CMX-gal4-Nurr1 dim^−.
(§5) In reporter assays of conditioned media and 9-cis retinoic acid titration experiments, a CMX-gal4-RAR construct (Perlmann et al. (1995) Genes and Dev. 9: 769-782) was also used. In all experiments, CMX-βgal (200 ng) (Perlmann et al. (1995) Genes and Dev. 9, 769-782) was used as an internal control. Following transfection of JEG3 cells (6 hours post-transfection), calcium precipitate was removed by washing with fresh medium. Tissue explants or conditioned media were then added to the cells. After 24 hours, cells were harvested and assayed for luciferase and reference β-galactosidase activity on a luminometer/photometer.
Reporter experiments were performed as previously described. […] Briefly, an expression vector encoding a derivative of the orphan-nuclear receptor Nurr1 (GAL4-Nurr1), was cotransfected into JEG3 cells with an expression vector encoding RXR and a reporter expression vector containing GAL4 binding sites in operable linkage with a luciferase reporter gene. […]
In the next assay the test system is RAR. Briefly: Luciferase reporter assay in JEG3 cells transfected with gal4-RAR. Format: cell-based. Conditions: JEG3, MH100-tk-luc reporter. (In general: In a reporter assay the amount or activity of a reporter protein is the signal.)
In assay [2] the test system is primary ventral midbrain cells (dopamine secreting cells). In words: Primary ventral midbrain cultures, count of TH-immunoreactive (dopamine) cells. It is filed as cell-based, rat. Conditions: for number of TH-immunoreactive (IR) cells: ligand alone, increasing concentrations, 3-5 days. As to the method: (§1) Ventral midbrains from rat embryos at stage E15.5 were dissected, mechanically dissociated, and plated on poly-D-lysine coated 12 well plates in serum-free medium (N2; consisting of a 1:1 mixture of F12 and MEM with 5 μg/ml insulin, 100 μg/ml transferrin, 60 μM putrescine, 20 nM progesterone, 30 nM selenium, 6 mg/ml glucose and 1 mg/ml bovine serum albumin).
(§2) Ventral midbrain, cortex and hippocampus from rat embryos at stage E14.5-15.5 were dissected, mechanically dissociated and plated on poly-D-lysine coated 12 or 24 well plates in serum free media (N2, consisting of a 1:1 mixture of MEM (+15 mM HEPES buffer) and Ham's F12 medium (+6 mg/ml glucose, 1 mg/ml bovine serum albumin, 5 ug/ml insulin, 100 ug/ml transferrin, 60 μM putrescine, 20 nM progesterone, 30 nM selenium and 1 mM glutamine). Ligands (all-trans RA, 9-cis retinoic acid, LG268, docosahexanoic acid (DHA), SR11237, TTNPB, and LB1208; stock solutions in DMSO) were diluted to working concentrations in N2, added to cells and incubated 3-5 days. GDNF was dissolved in phosphate-buffered saline (PBS) containing 1 mg/ml bovine serum albumin. These experiments were conducted in triplicate. Paraformaldehyde fixed cultures were then incubated over night with anti-tyrosine hydroxylase (TH) (1:1000, Pel-Freez), anti-NeuN (1:200, Chemicon) or anti-Nurr1 (1: 10,000, Santa Cruz) antibodies in PBS containing 0.5% (TH and NeuN) or 10% (Nurr1) fetal calf serum and 0.3% triton X100. Following rinses, cultures were incubated with biotinylated secondary antibody followed by detection of immuno-staining using the ABC immunoperoxidase kit from Vector. Cells were counted using brightfield microscopy (Nikon Eclipse EM 300). Cell counting was performed independently by two individuals to derive unbiased results.

In assay [3] the test system is primary ventral mesencephalic cultures. In words: Primary ventral mesencephalic cultures, count of NeuN-positive cells. Format: cell-based, rat. As to the method: as §2, with “Cell counting was performed independently by two individuals to derive unbiased results.” left out
The test system of the next assay is Nurr1+/+ cortical cells. In words: Primary cortical cultures from wild-type (Nurr1+/+) mice, NeuN count. Format: cell-based, mouse. Conditions: 0.1 μM, three days. On the procedure: (§3) Nurr1^+/− females were mated with Nurr1^+/− males to generate embryo litters of mixed genotypes (25%^+/+, 50%^+/− and 25%^−/−) as previously described (Zetterström et al, Science 1997). Pregnant females were sacrificed and embryos at embryonic stage E15.5 were dissected. Tails were removed for genotyping. Brains were fine-dissected and meninges removed. Both cortices from each embryo were removed and placed in 500 μl culture medium (N2). When all embryos in the litter were dissected, the cortices were triturated by mechanical dissociation using a fire-polished Pasteur pipette. […] To avoid excessive cell death due to the extended dissection period when using gene targeted mice as compared to wild-type rats, 50 μl cell suspension was routinely plated. This generated cultures in the range of 200.000-470.000 cells per well. Six wells were plated per embryo; three were incubated in N2 only and three with N2+0.1 μM LG268. Cells were incubated for three days and thereafter fixed in 4% paraformaldehyde for 30 minutes and rinsed. For detection of neuronal nuclei, NeuN (diluted 1:300, Chemicon) was used in immunohistochemistry where visualization was with the ABC-kit from Vector. Cells were counted using brightfield microscopy (Eclipse E300M).

In another assay the test system is cortex cultures. Briefly: Primary cortex cultures, count of Nurr1-positive and non-expressing cells. Format: cell-based, rat. On the procedure:
as §2, with “Cell counting was performed independently by two individuals to derive unbiased results.” left out

For another assay, the system named is hippocampal cultures. In words: Primary hippocampal cultures, count of Nurr1-positive and non-expressing cells. Format: cell-based, rat. As to the method:
as §2, with “Cell counting was performed independently by two individuals to derive unbiased results.” left out

The next assay deals with Nurr1-/- cortical cells. Briefly: Primary cortical cultures from Nurr1-knock-out (Nurr1-/-) mice, NeuN count. Format: cell-based, mouse. Conditions: 0.1 μM, three days. On the procedure:
as §3

For assay [4], the system named is primary midbrain cultures. In words: BrdU pulse labeling of primary midbrain cultures (proliferation). Conditions: 0.1 μM. Format: cell-based, rat. As to the method:
as §1
Bromodeoxyuridine (BrdU) was added in relevant experiments 4-6 hours before fixation. After fixation with 4% paraformaldehyde for 45 minutes, cells were rinsed in PBS. BrdU incorporation was detected by incubating cells with 2 M hydrochloric acid prior to digesting with 0.25% pepsin (Sigma). Following PBS rinses, cells were incubated in blocking solution (0.5% bovine serum albumin, 0.5% Tween-20 in PBS), and thereafter incubated with anti-BrdU antibody (Dako A/S; diluted 1:20 in blocking solution) at 4° C. overnight. Antibody-binding was detected with anti-mouse CY3-conjugated IgG (Jackson ImmunoResearch Labs Inc.). Cells were analyzed using inverted epifluorescent microscopy.

Entries after “also recorded” stand apart in the source; their conditions may differ.

Method for RAR: as §4, §5

For the molecule `CC1=C(/C=C/C(C)=C\C=C\C(C)=C\C(=O)O)C(C)(C)CCC1` [9cisRA, 9-cis retinoic acid], in [1], the “activation of RXR reporter (titration)” value is recorded as “efficient ligand”. For the same molecule, the “activation of RAR reporter (titration)” value in the assay on RAR is “efficient ligand”. In addition, the “number of TH-IR neurons when combined with RAR antagonist RO” value in [2] (increasing concentrations combined with R041-5253 (RO)) is on record as “increase with increasing concentrations”. In [2], the “number of TH-immunoreactive (IR) cells” value is on record as “does not affect the number of TH-IR cells”.

For `CC/C=C\C/C=C\C/C=C\C/C=C\C/C=C\C/C=C\CCC(=O)O` [DHA, docosahexanoic acid], the “number of NeuN-positive cells (entire neuronal-cell population)” value in assay [3] is reported as “do not produce a general increase”. The “number of TH-immunoreactive (IR) cells” value in assay [2] is on record as “increased the number of TH-IR cells in a dose-dependent manner; also recorded: efficiently increased the number of dopamine neurons”.

As to `Cc1cc2c(cc1C1(c3ccc(C(=O)O)cn3)CC1)C(C)(C)CCC2(C)C` [LG268], the “number of NeuN-positive cells (entire neuronal-cell population)” value in assay [3] is “do not produce a general increase”. Besides, the results for the “total number of neurons (NeuN immunoreactivity)” value in the assay on Nurr1+/+ cortical cells and with Nurr1-/- cortical cells were “significantly increased” and “no increase”, respectively. In addition, in assay [2] (FIG. 12C, comparison of SR11237, LG268 and GDNF), the “efficiency compared to GDNF (TH-IR cells)” value is recorded as “more potent than either SR11237 or GDNF”. The “number of TH-immunoreactive (IR) cells” value in assay [2] is reported as “dose-dependent increase; also recorded: efficiently increased the number of dopamine neurons”. For the same molecule, the “increase in number of Nurr1-positive cells” value with cortex cultures came to 39%; with hippocampal cultures, 36%. Also, the “number of Nurr1 non-expressing cells” value in the assay on cortex cultures and in the assay on hippocampal cultures was “did not increase” throughout.

Turning to `CC1(C)CCC(C)(C)c2cc(C3(c4ccc(C(=O)O)cc4)OCCO3)ccc21` [SR11237], the “proliferation (BrdU)” value in assay [4] is “not due to increased proliferation”. Besides, the “number of dopamine secreting cells” value in assay [2] (72 hour incubation, compared to TTNPB, all-trans retinoic acid or no RXR ligand) is given as “increased dopamine secreting cells”. Besides, the “number of TH-immunoreactive (IR) cells” value in assay [2] is reported as “dose-dependent increase”.

`C/C(=C\c1ccc(C(=O)O)cc1)c1ccc2c(c1)C(C)(C)CCC2(C)C` [TTNPB]: in [2] (in the presence of LG268), the “effect on the neurotrophic effect of LG268” value is on record as “blocks the neurotrophic effect”. The “number of TH-immunoreactive (IR) cells” value in assay [2] is “does not increase the number of TH-IR cells”.
